This passage reports melting point results from patent US20050182252A1, “Novel 2'-C-methyl nucleoside derivatives” (priority 2004, published 2005).

Molecules are shown by their SMILES. Where a name gives a salt, the structure may show the parent alone.

Usually melting point stands for the temperature of the solid-liquid transition.

Turning to `C[C@@]1(O)[C@H](O)[C@@H](COP2(=O)OCC[C@H](c3ccc(F)c(Br)c3)O2)O[C@H]1n1ccc2c(N)ncnc21` (stereo partly drawn) (as salt: salt) [Compound 16.31], the melting point was 122 to 125 °C. The same measure for `C[C@@]1(O)[C@H](O)[C@@H](COP2(=O)OCC[C@H](c3ccc(Cl)c(Cl)c3)O2)O[C@H]1n1ccc2c(=O)[nH]c(N)nc21` (stereo partly drawn) (as salt: salt) [Compound 17.22, 2-amino-7-(cis-5′-O-[4-(3,4-dichlorophenyl)-2-oxo-1,3,2-dioxaphosphorinan-2-yl]-2′-C methyl-beta-D-ribofuranosyl)-7H-pyrrolo[2,3-d]pyrimidin-4(3H)-one]: 192 to 195 °C.

For the molecule `C[C@@]1(O)[C@H](O)[C@@H](COP2(=O)OCC[C@H](c3cncc(Br)c3)O2)O[C@H]1n1ccc2c(=O)[nH]c(N)nc21` (stereo partly drawn) (as salt: salt) [Compound 17.26, 2-amino-7-(cis-5′-O-[4-(5-bromo-pyridin-3-yl)-2-oxo-1,3,2-dioxaphosphorinan-2-yl]-2′-C methyl-beta-D-ribofuranosyl)-7H-pyrrolo[2,3-d]pyrimidin-4(3H)-one], the melting point was 185 to 189 °C. The same measure for `C[C@@]1(O)[C@H](O)[C@@H](COP2(=O)OC[C@@H](c3ccccc3)[C@@H](c3ccccc3)O2)O[C@H]1n1ccc2c(N)ncnc21` (stereo partly drawn) (as salt: trifluoroacetic acid salt) [Compound 16.13, 4-amino-7-(cis-5′-O-14,5-cis-diphenyl-2-oxo-1,3,2-dioxaphosphorinan-2-yl]-2′-C-methyl-beta-D-ribofuranosyl)-7H-pyrrolo[2,3-d]pyrimidine trifluoroacetic acid salt]: 174 to 177 °C; for `C[C@@]1(O)[C@H](O)[C@@H](COP2(=O)O[C@H](c3ccccc3)C[C@H](c3ccccc3)O2)O[C@H]1n1ccc2c(N)ncnc21` (stereo partly drawn) (as salt: trifluoroacetic acid salt) [Compound 16.16, 4-amino-7-(cis-5′-O-[4,6-cis-diphenyl-2-oxo-1,3,2-dioxaphosphorinan-2-yl]-2′-C-methyl-beta-D-ribofuranosyl)-7H-pyrrolo[2,3-d]pyrimidine trifluoroacetic acid salt]: 140 to 143 °C.

`C[C@@]1(O)[C@H](O)[C@@H](CO[P@@]2(=O)O[C@H](c3ccccc3)C[C@H](c3ccccc3)O2)O[C@H]1n1ccc2c(N)ncnc21` (as salt: trifluoroacetic acid salt) [Compound 16.18, 4-amino-7-(trans-5′-O-[4,6-cis-diphenyl-2-oxo-1,3,2-dioxaphosphorinan-2-yl]-2′-C-methyl-beta-D-ribofuranosyl)-7H-pyrrolo[2,3-d]pyrimidine trifluoroacetic acid salt] returned a melting point of over 220 °C. The same measure for `CO[C@@H]1COP(=O)(OC[C@H]2O[C@@H](n3ccc4c(N)ncnc43)[C@](C)(O)[C@@H]2O)O[C@@H]1c1cccc(Cl)c1` (stereo partly drawn) (as salt: trifluoroacetic acid salt) [Compound 16.23]: 116 to 120 °C; for `CO[C@H]1COP(=O)(OC[C@H]2O[C@@H](n3ccc4c(N)ncnc43)[C@](C)(O)[C@@H]2O)O[C@@H]1c1cccc(Cl)c1` (stereo partly drawn) (as salt: trifluoroacetic acid salt) [Compound 16.24]: 140 to 143 °C. The result for `C[C@@]1(O)[C@H](O)[C@@H](COP2(=O)OCC[C@H](c3ccccn3)O2)O[C@H]1n1ccc2c(N)ncnc21` (stereo partly drawn) (as salt: trifluoroacetic acid salt) [Compound 16.33, 4-amino-7-(cis-5′-O-14-(pyridin-2-yl-2-oxo-1,3,2-dioxaphosphorinan-2-yl]-2′-C-methyl-beta-D-ribofuranosyl)-7H-pyrrolo[2,3-d]pyrimidine trifluoroacetic acid salt] reads 88 to 90 °C; that for `C[C@@]1(O)[C@H](O)[C@@H](COP2(=O)OCC[C@H](c3ccc(Cl)cc3)O2)O[C@H]1n1ccc2c(N)ncnc21` (stereo partly drawn) (as salt: trifluoroacetic acid salt) [Compound 16.35, 4-amino-7-(cis-5′-O-[4-(4-chlorophenyl-2-oxo-1,3,2-dioxaphosphorinan-2-yl]-2′-C-methyl-beta-D-ribofuranosyl)-7H-pyrrolo[2,3-d]pyrimidinetrifluoroacetic acid salt], 182 to 184 °C; that for `C[C@@]1(O)[C@H](O)[C@@H](COP2(=O)OCC[C@H](c3cccc(F)c3F)O2)O[C@H]1n1ccc2c(N)ncnc21` (stereo partly drawn) (as salt: trifluoroacetic acid salt) [Compound 16.36, 4-amino-7-(cis-5′-O-[4-(2,3-difluorophenyl)-2-oxo-1,3,2-dioxaphosphorinan-2-yl]-2′-C-methyl-beta-D-ribofuranosyl)-7H-pyrrolo[2,3-d]pyrimidine trifluoroacetic acid salt], 177 to 180 °C. The same measure for `COc1ccc(F)c([C@H]2CCOP(=O)(OC[C@H]3O[C@@H](n4ccc5c(N)ncnc54)[C@](C)(O)[C@@H]3O)O2)c1` (stereo partly drawn) (as salt: trifluoroacetic acid salt) [Compound 16.37, 4-amino-7-(cis-5′-O-[4-(2-fluoro-5-methoxyphenyl)-2-oxo-1,3,2-dioxaphosphorinan-2-yl]-2′-C-methyl-beta-D-ribofuranosyl)-7H-pyrrolo[2,3-d]pyrimidine trifluoroacetic acid salt]: 80 to 85 °C; for `C[C@@]1(O)[C@H](O)[C@@H](COP2(=O)OCC[C@H](c3ccc(F)cc3Cl)O2)O[C@H]1n1ccc2c(N)ncnc21` (stereo partly drawn) (as salt: trifluoroacetic acid salt) [Compound 16.38, 4-amino-7-(cis-5′-O-[4-(2-chloro-4-fluorophenyl)-2-oxo-1,3,2-dioxaphosphorinan-2-yl]-2′-C-methyl-beta-D-ribofuranosyl)-7H-pyrrolo[2,3-d]pyrimidine trifluoroacetic acid salt]: 138 to 141 °C; for `C[C@@]1(O)[C@H](O)[C@@H](COP2(=O)OCC[C@@H](c3ccccn3)O2)O[C@H]1n1ccc2c(=O)[nH]c(N)nc21` (stereo partly drawn) (as salt: trifluoroacetic acid salt) [Compound 17.8, 2-amino-7-(cis-5′-O-[4-(pyridin-2-yl)-2-oxo-1,3,2-dioxaphosphorinan-2-yl]-2′-C methyl-beta-D-ribofuranosyl)-7H-pyrrolo[2,3-d]pyrimidin-4(3H)-one trifluoroacetic acid salt]: 180 to 190 °C. Turning to `C[C@@]1(O)[C@H](O)[C@@H](COP2(=O)OCC[C@@H](c3ccccc3C(F)(F)F)O2)O[C@H]1n1ccc2c(=O)[nH]c(N)nc21` (stereo partly drawn) (as salt: trifluoroacetic acid salt) [Compound 17.9, 2-amino-7-(cis-5-O-[4-(2-trifluoromethylphenyl)-2-oxo-1,3,2-dioxaphosphorinan-2-yl]-2′-C methyl-beta-D-ribofuranosyl)-7H-pyrrolo[2,3-d]pyrimidin-4(3H)-one trifluoroacetic acid salt], the melting point is 185 to 188 °C. The same measure for `C[C@@]1(O)[C@H](O)[C@@H](CO[P@]2(=O)OCC[C@H](c3cccc(Cl)c3)O2)O[C@H]1n1ccc2c(=O)[nH]c(N)nc21` (as salt: trifluoroacetic acid salt) [Compound 17.10, 2-amino-7-(cis-5′-O-[4-(R)-(3-chlorophenyl)-2-oxo-1,3,2-dioxaphosphorinan-2-yl]-2′-C methyl-beta-D-ribofuranosyl)-7H-pyrrolo[2,3-d]pyrimidin-4(3H)-one trifluoroacetic acid salt]: 170 to 180 °C; for `C[C@@]1(O)[C@H](O)[C@@H](COP2(=O)OCC[C@H](c3cc(F)cc(F)c3)O2)O[C@H]1n1ccc2c(=O)[nH]c(N)nc21` (stereo partly drawn) (as salt: trifluoroacetic acid salt) [Compound 17.11, 2-amino-7-(cis-5-O-[4-(3,5-difluorophenyl)-2-oxo-1,3,2-dioxaphosphorinan-2-yl]-2-C methyl-beta-D-ribofuranosyl)-7H-pyrrolo[2,3-d]pyrimidin-4(3H)-one trifluoroacetic acid salt]: 182 to 185 °C; for `C[C@@]1(O)[C@H](O)[C@@H](COP2(=O)OC[C@H](c3ccccc3)[C@H](c3ccccc3)O2)O[C@H]1n1ccc2c(=O)[nH]c(N)nc21` (stereo partly drawn) (as salt: trifluoroacetic acid salt) [Compound 17.17, 2-amino-7-(cis-5′-[4,5-cis-diphenyl-2-oxo-1,3,2-dioxaphosphorinan-2-yl]-2-C methyl-beta-D-ribofuranosyl)-7H-pyrrolo[2,3-d]pyrimidin-4(3H)-one trifluoroacetic acid salt]: 187 to 190 °C. `CC1(C)C[C@H](c2ccccc2)OP(=O)(OC[C@H]2O[C@@H](n3ccc4c(=O)[nH]c(N)nc43)[C@](C)(O)[C@@H]2O)O1` (stereo partly drawn) (as salt: trifluoroacetic acid salt) [Compound 17.18, 2-amino-7-(cis-5′-O-[6,6-dimethyl-4-phenyl-2-oxo-1,3,2-dioxaphosphorinan-2-yl]-2′C methyl-beta-D-ribofuranosyl)-7H-pyrrolo[2,3-d]pyrimidin-4(3H)-one trifluoroacetic acid salt]: the melting point lay within 192 to 194 °C.

In the case of `C[C@@]1(O)[C@H](O)[C@@H](COP2(=O)OCC[C@H](c3cccc(F)c3F)O2)O[C@H]1n1ccc2c(=O)[nH]c(N)nc21` (stereo partly drawn) (as salt: trifluoroacetic acid salt) [Compound 17.20, 2-amino-7-(cis-5′-O[4-(2,3-difluorophenyl)-2-oxo-1,3,2-dioxaphosphorinan-2-yl]-2′-C methyl-beta-D-ribofuranosyl)-7H-pyrrolo[2,3-d]pyrimidin-4(3H)-one trifluoroacetic acid salt], the melting point was 215 to 220 °C.

The molecule `C[C@@]1(O)[C@H](O)[C@@H](COP2(=O)OCC[C@@H](c3cccc(Cl)c3)O2)O[C@H]1n1cnc2c(N)ncnc21` (stereo partly drawn) (as salt: trifluoroacetic acid salt) [Compound 21.1, cis-5′-O-[4-(S)-(3-chlorophenyl)-2-oxo-1,3,2-dioxaphosphorinan-2-yl]-2′-C-beta-methyl-adenosine trifluoroacetic acid salt] showed a melting point of 125 to 128 °C.
